Measured values as given in ChEMBL document CHEMBL5260807, “Discovery of liver-directed glucokinase activator having anti-hyperglycemic effect without hypoglycemia” (Eur J Med Chem, 2017).

Columns and labels:
[1] = target: T1, Hexokinase-4 (Homo sapiens, UniProt P35557); assay: Activation of recombinant human glucokinase assessed as increase in maximal activation by measuring accumulation of NADH in presence of S0.5 of glucose and NAD by plate reader analysis
T1 sequence (P35557 whole entry): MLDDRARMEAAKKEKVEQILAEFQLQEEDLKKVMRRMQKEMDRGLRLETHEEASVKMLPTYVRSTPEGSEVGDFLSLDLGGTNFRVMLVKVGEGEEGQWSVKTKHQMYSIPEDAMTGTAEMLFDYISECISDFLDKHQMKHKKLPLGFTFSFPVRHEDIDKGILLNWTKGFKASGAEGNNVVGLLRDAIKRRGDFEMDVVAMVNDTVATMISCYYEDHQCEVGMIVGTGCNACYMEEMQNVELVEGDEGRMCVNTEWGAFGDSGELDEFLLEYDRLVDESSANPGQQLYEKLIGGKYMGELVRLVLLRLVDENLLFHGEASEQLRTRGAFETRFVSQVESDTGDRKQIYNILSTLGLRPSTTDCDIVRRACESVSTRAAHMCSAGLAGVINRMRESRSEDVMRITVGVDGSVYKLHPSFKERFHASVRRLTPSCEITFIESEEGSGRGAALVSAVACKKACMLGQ

[2] = Cmax in C57BL/6J mouse at 30 mg/kg,po and measured after 2 hrs by LC-MS/MS analysis; format: ADME, organism-based; set-up: dose 30 mg/kg, time 2 hrs, route po; conditions: in vivo
[3] = AUC(0 to 24 hrs) in C57BL/6J mouse at 30 mg/kg,po and measured after 2 hrs by LC-MS/MS analysis; format: ADME, organism-based; set-up: time 2 hrs, dose 30 mg/kg, route po; conditions: in vivo
[4] = Clearance in C57BL/6J mouse at 1 mg/kg,iv and measured after 2 hrs by LC-MS/MS analysis; format: ADME, organism-based; conditions: in vivo
[5] = Volume of distribution at steady state in C57BL/6J mouse at 1 mg/kg,iv and measured after 2 hrs by LC-MS/MS analysis; format: ADME, organism-based; conditions: in vivo, read-out: Vdss
[6] = Half life in C57BL/6J mouse at 1 mg/kg,iv and measured after 2 hrs by LC-MS/MS analysis; format: ADME, organism-based; conditions: in vivo
[7] = Oral bioavailability in C57BL/6J mouse at 30 mg/kg and measured after 2 hrs by LC-MS/MS analysis; format: ADME, organism-based; conditions: in vivo
[8] = Drug distribution in C57BL/6J mouse liver at 30 mg/kg,po and measured after 1 hrs by LC-MS/MS analysis; format: ADME, organism-based; conditions: read-out: Drug uptake
[9] = Drug distribution in C57BL/6J mouse liver at 30 mg/kg,po and measured after 3 hrs by LC-MS/MS analysis; format: ADME, organism-based; conditions: read-out: Drug uptake
[10] = Drug distribution in C57BL/6J mouse in circulatory system at 30 mg/kg,po and measured after 1 hrs by LC-MS/MS analysis; format: ADME, organism-based; conditions: read-out: Drug uptake
[11] = Drug distribution in C57BL/6J mouse in circulatory system at 30 mg/kg,po and measured after 3 hrs; format: ADME, organism-based; conditions: read-out: Drug uptake
[12] = test system: Mus musculus; assay: Anti-hyperglycemic activity against diet induced obese C57BL/6J mouse assessed as blood glucose level at 10 to 300 mg/kg ,po and measured upto 180 mins by OGTT; format: functional, organism-based; conditions: dose 10-300 mg/kg
[13] = Hypoglycemic activity in normoglycemic C57BL/6J mouse assessed as decrease in blood glucose level at 100 mg/kg ,po and measured upto 180 mins by glucose analysis; format: toxicity, organism-based; conditions: in vivo, 3 h
[14] = Drug uptake in mouse hepatocytes at 1 to 100 uM incubated for 5 mins at 37 degreeC by LC-MS/MS analysis; format: ADME, cell-based, Hepatocyte; conditions: dose 1-100 µM
[15] = Drug uptake in mouse hepatocytes at 1 to 100 uM incubated for 5 mins at 4 degreeC by LC-MS/MS analysis; format: ADME, cell-based, Hepatocyte; conditions: dose 1-100 µM
[16] = Inhibition of drug uptake in mouse hepatocytes at 1 to 100 uM incubated for 5 mins in presence of rifamycin SV by LC-MS/MS analysis; format: cell-based, Hepatocyte; conditions: dose 1-100 µM
[17] = target: T2, Hexokinase-4 (Rattus norvegicus) (UniProt P17712); assay: Activation of glucokinase in rat Primary hepatocytes assessed as fold increase in glycogen synthesis at 10 uM incubated for 30 mins using [U14C]-D-glucose as substrate by Microbeta TriLux luminescence counter analysis; format: cell-based; conditions: Primary hepatocyte, filed as activator
T2 sequence (whole entry): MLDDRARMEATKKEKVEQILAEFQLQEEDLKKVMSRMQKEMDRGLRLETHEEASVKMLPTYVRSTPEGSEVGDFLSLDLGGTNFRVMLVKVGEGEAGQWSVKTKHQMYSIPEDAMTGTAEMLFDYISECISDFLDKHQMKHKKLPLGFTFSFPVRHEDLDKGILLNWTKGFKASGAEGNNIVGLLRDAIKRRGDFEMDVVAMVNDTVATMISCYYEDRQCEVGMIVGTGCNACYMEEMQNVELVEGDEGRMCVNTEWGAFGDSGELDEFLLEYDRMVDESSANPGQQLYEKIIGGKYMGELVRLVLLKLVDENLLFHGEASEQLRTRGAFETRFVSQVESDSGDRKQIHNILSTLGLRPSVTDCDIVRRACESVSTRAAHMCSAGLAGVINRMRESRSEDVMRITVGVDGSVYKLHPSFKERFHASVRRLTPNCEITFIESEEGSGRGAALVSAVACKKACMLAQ

[18] = AUC(0 to t) in C57BL/6J mouse at 30 mg/kg,po; format: ADME, organism-based; set-up: dose 30 mg/kg, route po; conditions: in vivo
[19] = Clearance in C57BL/6J mouse at 3 mg/kg,iv and measured after 2 hrs by LC-MS/MS analysis; format: ADME, organism-based; conditions: in vivo
[20] = Volume of distribution at steady state in C57BL/6J mouse at 3 mg/kg,iv and measured after 2 hrs by LC-MS/MS analysis; format: ADME, organism-based; conditions: in vivo, read-out: Vdss
[21] = Half life in C57BL/6J mouse at 3 mg/kg,iv and measured after 2 hrs by LC-MS/MS analysis; format: ADME, organism-based; conditions: in vivo
[22] = test system: Mus musculus; assay: Anti-hyperglycemic activity against diet induced obese C57BL/6J mouse assessed as reduction in AUCglucose level at 30 mg/kg ,po and measured upto 180 mins by OGTT; format: functional; set-up: scale not given: the % may be the effect or the level left; conditions: 3 h
[23] = test system: Mus musculus; assay: Anti-hyperglycemic activity against diet induced obese C57BL/6J mouse assessed as reduction in AUCglucose level at 100 mg/kg ,po and measured upto 180 mins by OGTT; format: functional; set-up: scale not given: the % may be the effect or the level left; conditions: 3 h
[24] = Hypoglycemic activity in normoglycemic C57BL/6J mouse at 300 mg/kg ,po and measured upto 180 mins by glucose analysis; format: toxicity, organism-based; conditions: in vivo, 3 h
[25] = Hypoglycemic activity in normoglycemic C57BL/6J mouse assessed as decrease in blood glucose level at 300 mg/kg ,po and measured upto 180 mins by glucose analysis; format: toxicity, organism-based; conditions: in vivo, 3 h
[26] = target: T3, Hexokinase-4 (Homo sapiens) (UniProt P35557); assay: Activation of recombinant human glucokinase assessed as increase in maximal activation by measuring accumulation of NADH at 60 uM in presence of S0.5 of glucose and NAD by plate reader analysis; conditions: filed as activator
T3 sequence (whole entry): T1 sequence (P35557 whole entry)

[27] = Drug uptake in C57BL/6J mouse plasma at 30 mg/kg,po and measured after 1 hrs; format: ADME, organism-based
[28] = Drug uptake in C57BL/6J mouse plasma at 30 mg/kg,po and measured after 3 hrs; format: ADME, organism-based

In the case of `O=C(O)C1CCN(Cc2cnc(NC(=O)C(Oc3ccc(F)cc3F)c3ccc(S(=O)(=O)C4CC4)cc3)s2)CC1` (centres undefined), the EC50 [1] is reported as greater than 10000 nM.

Work on `CC(C)(Oc1ccc(F)cc1F)C(=O)Nc1nc(CC(=O)O)c(Cl)s1` yielded a Cmax [2] of 326 µM, an AUC(0-t) at 2 h [3] of 802 µM·h and a clearance [4] of 3.5 mL/min/kg. For the same compound, the Vd [5] was 0.4 L/kg, the half-life [6] was 1 h and the bioavailability [7] was 100%. It also gave a concentration at 1 h [8] of 111 µM, a concentration at 3 h [9] of 104 µM and a concentration at 1 h [10] of 220 µM. The concentration at 3 h [11] was 85 µM, the EC50 [1] was 7000 nM and the Activity [12] was “Dose-Dependent Effect”. It also gave an Activity [13] of less than 60 mg/dL, a Drug uptake [14] of less than 5% and a Drug uptake [15] of 5%. The “inhibition (INH)” value ([16]; hepatocytes, 5 min, 100 µM) was “Not Active”.

With `O=C(O)c1ccc(Cc2cnc(NC(=O)C(Oc3ccc(F)cc3F)c3ccc(S(=O)(=O)C4CC4)cc3)s2)cc1` (centres undefined) the EC50 [1] was 450 nM.

Work on `O=C(O)c1ccc(Oc2cnc(NC(=O)C(Oc3ccc(F)cc3F)c3ccc(S(=O)(=O)N4CCCC4)cc3)s2)cc1` (centres undefined) yielded an EC50 [1] of 240 nM and a fold change (FC) [17] of 3.76.

`O=C(O)c1ccc(Oc2cnc(NC(=O)C(Oc3ccc(F)cc3F)c3ccc(S(=O)(=O)N4CCOCC4)cc3)s2)cc1` (centres undefined) gave an EC50 [1] of 330 nM and a fold change (FC) [17] of 3.

For `O=C(O)c1cccc(Oc2cnc(NC(=O)C(Oc3ccc(F)cc3F)c3ccc(S(=O)(=O)C4CC4)cc3)s2)c1` (centres undefined), the EC50 [1] was 2730 nM.

Compound `O=C(O)c1ccc(Oc2cnc(NC(=O)C(Oc3ccc(F)cc3F)c3ccc(S(=O)(=O)C4CC4)cc3)s2)cc1` (centres undefined) has an EC50 [1] of 190 nM and a fold change (FC) [17] of 11.4.

Work on `O=C(O)Cc1nc(NC(=O)C(Oc2ccc(F)cc2F)c2ccc(S(=O)(=O)N3CCCCC3)cc2)sc1Cl` (centres undefined) yielded an EC50 [1] of 500 nM.

`O=C(O)c1ccc(Oc2cnc(NC(=O)[C@H](Oc3ccc(F)cc3F)c3ccc(S(=O)(=O)C4CC4)cc3)s2)cc1` showed a Cmax [2] of 13.3 µM, a bioavailability [7] of 86% and a concentration at 1 h [8] of 215 µM. The concentration at 3 h [9] was 184 µM, the concentration at 1 h [10] was 6 µM and the concentration at 3 h [11] was 2.7 µM. It also gave an AUC(0-t) [18] of 22 µM·h, an EC50 [1] of 34 nM and a fold change (FC) [17] of 12.2. The clearance [19] was 32.6 mL/min/kg, the Vd [20] was 1.67 L/kg and the half-life [21] was 2.16 h. For the same compound, the Drug uptake [14] was 30%, the Drug uptake [15] was less than 5% and the inhibition at 5 min, up to 100 µM ([16]; mouse hepatocytes, with rifamycin SV) was 90%. The Activity [22] was 21%, the Activity [23] was 34% and the Activity [24] was “Not Active”. For the same compound, the Activity [25] was “Active”.

For `O=C(O)c1ccc(Oc2cnc(NC(=O)C(Oc3ccc(F)cc3F)c3ccc(S(=O)(=O)N4CCCCC4)cc3)s2)cc1` (centres undefined), the fold change (FC) [17] was 3.4.

Work on `CC(Oc1ccc(F)cc1F)(C(=O)Nc1nc(CC(=O)O)c(Cl)s1)c1ccc(S(=O)(=O)N2CCCCC2)cc1` (centres undefined) yielded an EC50 [1] greater than 20000 nM and an Activity [26] of 60%.

Compound `O=C(O)C#Cc1cnc(NC(=O)C(Oc2ccc(F)cc2F)c2ccc(S(=O)(=O)C3CC3)cc2)s1` (centres undefined) has an EC50 [1] of 2300 nM.

For `O=C(O)Cc1ccc(Oc2cnc(NC(=O)C(Oc3ccc(F)cc3F)c3ccc(S(=O)(=O)C4CC4)cc3)s2)cc1` (centres undefined), the EC50 [1] was 400 nM.

`O=C(O)c1ccc(Oc2cnc(NC(=O)C(Oc3ccc(F)cc3F)c3ccc(S(=O)(=O)C4CCOCC4)cc3)s2)cc1` (centres undefined) gave an EC50 [1] of 310 nM and a fold change (FC) [17] of 3.04.

Compound `O=C(O)c1ccc(Oc2cnc(NC(=O)[C@@H](Oc3ccc(F)cc3F)c3ccc(S(=O)(=O)C4CC4)cc3)s2)cc1` has an EC50 [1] of 690 nM.

For `O=C(Nc1ncc(CN2CCCC2C(=O)O)s1)C(Oc1ccc(F)cc1F)c1ccc(S(=O)(=O)C2CC2)cc1` (centres undefined), the EC50 [1] was greater than 10000 nM.

Compound `CC(C)(Oc1ccc(F)cc1F)C(=O)Nc1ncc(Oc2ccc(C(=O)O)cc2)s1` has a concentration at 1 h [8] of 23.3 µM, a concentration at 3 h [9] of 11.1 µM and an EC50 [1] of 6200 nM. The concentration at 1 h [27] was 8.8 µM and the concentration at 3 h [28] was 1.4 µM.
